Assay results reported in patent publication US20130224219A1, “DRUG AND METHOD FOR THE PROPHYLAXIS OF HIV INFECTION AND FOR THE PROPHYLAXIS AND TREATMENT OF DISEASES CAUSED BY OR ASSOCIATED WITH HIV, INCLUDING AIDS” (priority 2010, published 2013).

Test system: HIV-1-LAI
Test: Inhibition of HIV replication in human peripheral blood mononuclear cells infected in vitro, p24 ELISA
Assay type: cell-based
Conditions: Human immunodeficiency virus 1, PBMC, read-out: inhibition of HIV replication (nucleocapsid core protein p24 in cell supernatants)
Experimental: Antiretroviral action of the claimed medicinal agent was studied by inhibiting the replication of HIV in the culture of mononuclear cells of the peripheral human blood which were infected in vitro by the strain of HIV-1-LAI. Effective inhibition of HIV replication was evaluated by the content of basic nuclecapsid protein r24 in the supernatant of HIV.
Human peripheral blood mononuclear cells were isolated from the blood of healthy seronegative donors by density gradient centrifugation of Ficoll-Hypaque. Cells were activated for 3 days with […] phytogemmaglyutin P and 5 ME/ml of recombinant human interleukin-2 […]
Cell culture supernatants were collected at day 7 after infection. Efficacy of the drugs was determined by the inhibition of HIV replication, which was evaluated by content nucleocapsid core protein p24 of HIV in cell supernatants by ELISA (Retrotek Elisa kit).
Antiretroviral effect of the claimed medicinal agent studied by inhibiting HIV replication in cultured peripheral blood mononuclear cells of human infected in vitro HIV-1-LAI. Effective inhibition of HIV replication was evaluated by the content of basic nucleocapsid protein p24 in the supernatants of HIV. […]

Question: With `Cc1cn([C@H]2C[C@H](N=[N+]=[N-])[C@@H](CO)O2)c(=O)[nH]c1=O` [AZT, zidovudine] as the molecule, how does the inhibition at 1 µM read?
Answer: 99%
